The values that follow are results of earlier work, collected in patent publication US6509447B1, “G protein chimeras and methods of screening compounds” (Glaxo Welcome Inc., priority 1997, dated 2003).

In general, Kd refers to the equilibrium constant for the complex coming apart.

In this data set the target is T1, Ste2p (Saccharomyces cerevisiae, UniProt D6VTK4).
T1 sequence (D6VTK4 1-431): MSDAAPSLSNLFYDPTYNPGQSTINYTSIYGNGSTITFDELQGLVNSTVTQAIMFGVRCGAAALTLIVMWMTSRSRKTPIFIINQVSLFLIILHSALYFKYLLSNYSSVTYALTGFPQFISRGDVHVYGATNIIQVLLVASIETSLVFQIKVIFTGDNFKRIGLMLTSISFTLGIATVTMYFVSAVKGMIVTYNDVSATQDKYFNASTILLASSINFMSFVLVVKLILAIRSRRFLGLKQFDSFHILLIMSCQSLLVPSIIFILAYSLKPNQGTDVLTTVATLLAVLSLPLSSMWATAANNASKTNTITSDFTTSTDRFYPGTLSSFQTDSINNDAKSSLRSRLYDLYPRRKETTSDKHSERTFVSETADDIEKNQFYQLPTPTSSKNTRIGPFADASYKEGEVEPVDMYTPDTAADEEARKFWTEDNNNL
The following applies: literature reference (3); read-out: reported affinity of Ste2p for α-factor peptide (Kd); cited from earlier work.

Take α-factor: the Kd was 0.017 µM.
